{
  "source": "patent US20230167073A1",
  "about": "(Teijin Pharma Limited, priority 2020, published 2023)",
  "data": [
    {"biological_target": "T1, Human TRPC6 (Homo sapiens, UniProt Q9Y210)", "T1 construct": "expressed in transfected cells", "T1 sequence (Q9Y210 1-931)": "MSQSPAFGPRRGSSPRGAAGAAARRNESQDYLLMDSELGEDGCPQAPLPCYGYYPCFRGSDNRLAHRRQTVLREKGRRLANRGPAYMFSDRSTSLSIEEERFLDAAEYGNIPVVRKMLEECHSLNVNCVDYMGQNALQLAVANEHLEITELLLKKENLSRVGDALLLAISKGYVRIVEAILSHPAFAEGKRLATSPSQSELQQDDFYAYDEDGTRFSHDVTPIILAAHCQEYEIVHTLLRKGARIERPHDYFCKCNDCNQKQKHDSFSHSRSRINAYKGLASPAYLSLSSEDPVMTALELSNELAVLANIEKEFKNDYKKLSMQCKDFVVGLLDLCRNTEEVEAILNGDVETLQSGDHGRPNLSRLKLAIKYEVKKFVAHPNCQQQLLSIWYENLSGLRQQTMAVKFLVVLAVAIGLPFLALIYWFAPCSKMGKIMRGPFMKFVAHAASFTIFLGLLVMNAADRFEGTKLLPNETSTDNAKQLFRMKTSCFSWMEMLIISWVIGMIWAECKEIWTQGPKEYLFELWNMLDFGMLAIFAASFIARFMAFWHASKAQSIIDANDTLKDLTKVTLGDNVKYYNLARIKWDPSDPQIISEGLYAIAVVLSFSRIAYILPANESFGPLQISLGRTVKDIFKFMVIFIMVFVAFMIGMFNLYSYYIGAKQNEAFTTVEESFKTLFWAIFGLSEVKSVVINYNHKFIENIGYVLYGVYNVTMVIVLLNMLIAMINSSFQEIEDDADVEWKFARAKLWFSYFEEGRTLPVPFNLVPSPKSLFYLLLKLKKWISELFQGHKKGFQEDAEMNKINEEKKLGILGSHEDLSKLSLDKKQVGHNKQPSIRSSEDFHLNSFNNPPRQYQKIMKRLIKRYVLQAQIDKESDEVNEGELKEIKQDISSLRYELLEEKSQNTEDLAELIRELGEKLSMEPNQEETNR", "test": "Evaluation of TRPC6 channel inhibitory activity (1), FLIPR Calcium 5 Assay Kit, OAG stimulation (Compound Nos. 1-1293)", "assay_type": "cell-based", "conditions": "Human TRPC6 stably-expressing cells, OAG 30 μM, FLIPR Calcium 5 Assay Kit; read-out: Inhibitory activity (pIC50 class) (converted)", "summary_of_the_method": "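The FLIPR signal is maximum fluorescence after 30 μM OAG minus minimum before compound, measured in a human TRPC6 stable line loaded with Calcium 5 dye. Compounds were preincubated 20 min. pIC50 came from four-parameter logistic fitting of inhibition rates and is given as symbol ranges.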", "units": {"IC50": "nM"}, "values": [
      {"smiles": "CN(C)c1cc(Cc2cc(C#N)ccc2-c2ccc(CCN)cn2)n(C)n1", "note": "[compound 1217, 4-[5-(2-aminoethyl)pyridin-2-yl]-3-[[5-(dimethylamino)-2-methylpyrazol-3-yl]methyl]benzonitrile]", "IC50": "< 10"},
      {"smiles": "Cn1nc(N2CCCCC2)cc1Cc1cc(C#N)ccc1-c1ncc(CCN)cn1", "note": "[compound 1218, 4-[5-(2-aminoethyl)pyrimidin-2-yl]-3-[(2-methyl-5-piperidin-1-ylpyrazol-3-yl)methyl]benzonitrile]", "IC50": "< 10"},
      {"smiles": "Cn1nc(N2CCCCC2)cc1Cc1cc(C#N)ccc1-c1ccc(CCN)cn1", "note": "[compound 1219, 4-[5-(2-aminoethyl)pyridin-2-yl]-3-[(2-methyl-5-piperidin-1-ylpyrazol-3-yl)methyl]benzonitrile]", "IC50": "< 10"},
      {"smiles": "NCCc1cnc(-c2ccc(F)cc2Cc2cnn(-c3ccccn3)c2)nc1", "note": "[compound 1220, 2-[2-[4-fluoro-2-[(1-pyridin-2-ylpyrazol-4-yl)methyl]phenyl]pyrimidin-5-yl]ethanamine]", "IC50": "> 1000"},
      {"smiles": "CC(C)Cn1cc(Cc2cc(F)ccc2-c2ccc(CCN)cn2)cn1", "note": "[compound 1221, 2-[6-[4-fluoro-2-[[1-(2-methylpropyl)pyrazol-4-yl]methyl]phenyl]pyridin-3-yl]ethanamine]", "IC50": "10 to 1000"},
      {"smiles": "CC(C)Cn1cc(Cc2cc(F)ccc2-c2ncc(CCN)cn2)cn1", "note": "[compound 1222, 2-[2-[4-fluoro-2-[[1-(2-methylpropyl)pyrazol-4-yl]methyl]phenyl]pyrimidin-5-yl]ethanamine]", "IC50": "10 to 1000"},
      {"smiles": "CC(C)Cn1cc(Cc2cc(F)ccc2-c2ncc(CN)cn2)cn1", "note": "[compound 1223, [2-[4-fluoro-2-[[1-(2-methylpropyl)pyrazol-4-yl]methyl]phenyl]pyrimidin-5-yl]methanamine]", "IC50": "> 1000"},
      {"smiles": "Cc1nn(CC(C)C)cc1Cc1cc(F)ccc1-c1ncc(CCN)cn1", "note": "[compound 1224, 2-[2-[4-fluoro-2-[[3-methyl-1-(2-methylpropyl)pyrazol-4-yl]methyl]phenyl]pyrimidin-5-yl]ethanamine]", "IC50": "10 to 1000"},
      {"smiles": "Cc1nn(CC(C)C)cc1Cc1cc(F)ccc1-c1ncc(CN)cn1", "note": "[compound 1225, [2-[4-fluoro-2-[[3-methyl-1-(2-methylpropyl)pyrazol-4-yl]methyl]phenyl]pyrimidin-5-yl]methanamine]", "IC50": "10 to 1000"},
      {"smiles": "C=C(c1cc(N2CCOCC2)nc(C)n1)c1cc(C#N)ccc1-c1ccc(CCN)cc1", "note": "[compound 1228, 4-[4-(2-aminoethyl)phenyl]-3-[1-(2-methyl-6-morpholin-4-ylpyrimidin-4-yl)ethenyl]benzonitrile]", "IC50": "10 to 1000"},
      {"smiles": "N#Cc1ccc(-c2ccc(CCN)cc2)c(C(O)c2cc(-c3ccccc3)no2)c1", "note": "(stereo not drawn) [compound 1229, 4-[4-(2-aminoethyl)phenyl]-3-[hydroxy-(3-phenyl-1,2-oxazol-5-yl)methyl]benzonitrile]", "IC50": "10 to 1000"},
      {"smiles": "COC(c1cnc(-c2ccccc2)s1)c1cc(C#N)ccc1-c1ccc(CCN)cc1", "note": "(stereo not drawn) [compound 1230, 4-[4-(2-aminoethyl)phenyl]-3-[methoxy-(2-phenyl-1,3-thiazol-5-yl)methyl]benzonitrile]", "IC50": "> 1000"},
      {"smiles": "COC(c1cc(-c2ccccc2)no1)c1cc(C#N)ccc1-c1ccc(CCN)cc1", "note": "(stereo not drawn) [compound 1231, 4-[4-(2-aminoethyl)phenyl]-3-[methoxy-(3-phenyl-1,2-oxazol-5-yl)methyl]benzonitrile]", "IC50": "10 to 1000"},
      {"smiles": "Cn1nc(C(C)(C)C)cc1C(O)c1cc(C#N)ccc1-c1ccc(CN)cn1", "note": "(stereo not drawn) [compound 1233, 4-[5-(aminomethyl)pyridin-2-yl]-3-[(5-tert-butyl-2-methylpyrazol-3-yl)-hydroxymethyl]benzonitrile]", "IC50": "< 10"},
      {"smiles": "Cn1nc(C(C)(C)C)cc1C(O)c1cc(C#N)ccc1-c1ncc(CN)cn1", "note": "(stereo not drawn) [compound 1234, 4-[5-(aminomethyl)pyrimidin-2-yl]-3-[(5-tert-butyl-2-methylpyrazol-3-yl)-hydroxymethyl]benzonitrile]", "IC50": "< 10"}
    ]}
  ]
}
